Like-named read-outs stand apart in the source and are kept apart here.
Tests used:
human CB2 receptor = target: T1, human CB2 receptor (Homo sapiens, UniProt P34972); test: CB2 radioligand ([3H]CP 55,940) competitive binding assay; details: for Selectivity CB2: fold difference in selectivity between CB1 and CB2 binding, shown in the column of the receptor with higher affinity
T1 construct: host or cells: CHO-K1 (Chinese hamster ovary) cells, stably transfected; membranes prepared in house
Protocol: Compounds of the present disclosure were tested for CB1 receptor binding affinity and for CB2 receptor binding affinity. As used herein, “binding affinity” is represented by the IC50 value, which was experimentally determined as described herein. The lower the IC50 value the higher the binding affinity. A compound of the present disclosure may be said to have “binding selectivity” if it has a higher binding affinity for one receptor compared to the other.
The membranes were prepared from CHO-K1 (Chinese hamster ovary) cells stably transfected with the human CB2 receptor (Cat. #ES-111-C; Perkin Elmer, Boston, Mass.). The cells were grown adherently and maintained in Ham's F12 medium containing 10% fetal bovine serum (FBS), penicillin, streptomycin and geneticin (G418) at 37° C. in a humid atmosphere of 5% CO2 following the manufacturer's instructions.
For membrane preparation the cells were washed with PBS and scraped off the plates in cold homogenization buffer (25 mM HEPES (pH 7.4), 2 mM EDTA) containing protease inhibitor cocktail (Sigma Cat. #P8340). The cell suspension was homogenized with a Pro-PK-01200D Polytron Homogenizer (Pro Scientific) and then centrifuged for 30 min at 120,000×g. The supernatant was discarded and the pellet was re-suspended in the homogenization buffer and stored at −80° C. until the time of use.
In this experiment, 3H radiolabeled CP 55,940, i.e. [3H]CP 55,940 (Perkin Elmer, Boston, Mass.), was used as a radioligand for the CB2 receptor to determine the binding affinity of compounds for the CB2 receptor (Scheme 4; above).
The competition binding experiments (single dose and dose-response) were performed by incubating 0.6 nM of [3H]CP55,940 (specific activity 101 Ci/mmol, Perkin Elmer) and different concentrations of compounds disclosed herein with membranes prepared as above from CHO-K1 cells expressing human CB2 receptor (1 μg of protein/well), 50 mM Tris-HCl (pH 7.4), 5 mM MgCl2, 1 mM CaCl2, and 2 mg/mL BSA.
For the single dose experiments, the compound stocks (usually 10 mM in DMSO) were diluted to working stocks in the binding buffer to give the final compound concentrations of 10 μM and 1 μM. For the dose-response experiments the test compounds were sequentially diluted to provide the desired concentration range for the IC50 determination. In each case the compounds were pre-incubated with the membrane for 20 min, before adding the radioligand.
After incubation with the radioligand for 60 min at 37° C., the incubation was terminated by rapid filtration of assay mixture through MultiScreen®HTS^+ 96-well filter plates (Millipore, Cat. #MSFCNXB), pre-soaked for 60 min with 50 mM Tris-HCl (pH 7.4) containing 0.33% polyethylenimine (PEI). The nonspecific binding (NSB) was determined in the presence of 10 μM unlabelled CP55,940. After drying the filter plate at 50° C. for at least 60 min, the filter-bound radioactivity was determined by scintillation spectrometry using the 1450 MicroBeta Plate Counter (Perkin Elmer, Boston, Mass.). From the dose-response experiments, the IC50 values were determined (see Table 1, CB2 IC50).

human CB1 receptor = target: T2, human CB1 receptor (Homo sapiens, UniProt P21554); test: CB1 radioligand ([3H]CP 55,940) competitive binding assay
T2 construct: host or cells: CHO-K1 (Chinese hamster ovary) cells, stably transfected; membranes prepared in house

[1] = displacement of 0.6 nM [3H]CP55,940, CHO-K1 membranes expressing human CB2, read-out: CB2 IC50
[2] = displacement of 0.8 nM [3H]CP 55,940, CHO-K1 membranes expressing human CB1, read-out: CB1 IC50

T1 sequence (P34972 whole entry): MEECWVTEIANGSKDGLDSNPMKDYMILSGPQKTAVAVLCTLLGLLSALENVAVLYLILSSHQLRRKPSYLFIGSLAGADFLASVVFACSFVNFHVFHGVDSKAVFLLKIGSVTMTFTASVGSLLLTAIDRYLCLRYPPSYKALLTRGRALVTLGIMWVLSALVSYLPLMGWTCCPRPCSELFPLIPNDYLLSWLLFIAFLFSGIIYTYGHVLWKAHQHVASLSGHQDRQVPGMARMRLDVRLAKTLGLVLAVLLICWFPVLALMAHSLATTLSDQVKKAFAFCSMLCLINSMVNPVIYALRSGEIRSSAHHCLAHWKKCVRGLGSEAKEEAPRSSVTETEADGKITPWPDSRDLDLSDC
T2 sequence (P21554 whole entry): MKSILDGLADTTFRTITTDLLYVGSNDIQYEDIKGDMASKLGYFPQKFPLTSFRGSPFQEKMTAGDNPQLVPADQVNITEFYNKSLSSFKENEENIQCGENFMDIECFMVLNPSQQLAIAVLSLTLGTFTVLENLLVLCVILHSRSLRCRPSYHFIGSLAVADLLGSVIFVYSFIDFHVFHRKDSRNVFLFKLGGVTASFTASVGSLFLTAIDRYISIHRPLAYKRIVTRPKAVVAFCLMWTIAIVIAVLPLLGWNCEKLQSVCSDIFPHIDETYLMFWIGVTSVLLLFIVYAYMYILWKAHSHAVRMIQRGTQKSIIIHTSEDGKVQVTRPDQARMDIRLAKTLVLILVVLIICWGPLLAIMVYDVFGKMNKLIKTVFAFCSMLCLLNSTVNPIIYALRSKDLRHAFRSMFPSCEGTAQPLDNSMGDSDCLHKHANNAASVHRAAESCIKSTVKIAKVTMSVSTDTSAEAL

SMILES	IC50 (human CB2 receptor; [1]) [nM]	Selectivity CB2 (human CB2 receptor)	IC50 (human CB1 receptor; [2]) [µM]	IC50 (human CB2 receptor) [nM]	IC50 (human CB1 receptor) [µM]
CCCCCc1cc(O)c(C/C=C(\C)CCC=C(C)C)c(O)c1C(=O)NC [Compound 1, 3-(3,7-dimethylocta-2,6-dien-1-yl)-2,4-dihydroxy-N-methyl-6-pentylbenzamide]	1000 to 4990	4.06	> 5		
CCCCCc1cc(O)c(C/C=C(\C)CCC=C(C)C)c(O)c1C(=O)NC1CC1 [Compound 6, N-cyclopropyl-3-(3,7-dimethylocta-2,6-dien-1-yl)-2,4-dihydroxy-6-pentylbenzamide]	1000 to 4990	3.41	1 to 4.99		
CCCCCc1cc(O)c(C/C=C(\C)CCC=C(C)C)c(O)c1C(=O)Nc1ccccc1 [Compound 10, 3-(3,7-dimethylocta-2,6-dien-1-yl)-2,4-dihydroxy-6-pentyl-N-phenylbenzamide]	1000 to 4990	4.86	> 5		
CCCCCc1cc(O)c(C/C=C(\C)CCC=C(C)C)c(O)c1C(=O)Nc1ccc(OC)cc1 [Compound 11, 3-(3,7-dimethylocta-2,6-dien-1-yl)-2,4-dihydroxy-N-(4-methoxyphenyl)-6-pentylbenzamide]	500 to 990	2.35	1 to 4.99		
CCCCCc1cc(O)c(C/C=C(\C)CCC=C(C)C)c(O)c1C(=O)NCc1ccccc1 [Compound 14, N-benzyl-3-(3,7-dimethylocta-2,6-dien-1-yl)-2,4-dihydroxy-6-pentylbenzamide]	1000 to 4990	8.57	> 5		
CCCCCc1cc(O)c(C/C=C(\C)CCC=C(C)C)c(O)c1C(=O)N1CCOCC1 [Compound 39]	< 500	24.32	> 5		
CCCCCc1cc(O)c(C/C=C(\C)CCC=C(C)C)c(O)c1C(=O)N1CCCC1 [Compound 41, (3-(3,7-dimethylocta-2,6-dien-1-yl)-2,4-dihydroxy-6-pentylphenyl)(pyrrolidin-1-yl)methanone]	1000 to 4990	11.54	> 5		
CCCCCc1cc(O)c(C/C=C(\C)CCC=C(C)C)c(O)c1C(=O)N(CC)CC [Compound 50, 3-(3,7-dimethylocta-2,6-dien-1-yl)-N,N-diethyl-2,4-dihydroxy-6-pentylbenzamide]		4.80		1000 to 4990	> 5
CCCCCc1cc(O)c(CC=C(C)CCC=C(C)C)c(O)c1CN(C)C(=O)OC [Compound 58, methyl (3-(3,7-dimethylocta-2,6-dien-1-yl)-2,4-dihydroxy-6-pentylbenzyl)(methyl)carbamate]	< 500	30.00	1 to 4.99		
CCCCCc1c(CN(C)C(=O)OC)c(O)c(CC=C(C)CCC=C(C)C)c(O)c1CN(C)C(=O)OC [Compound 59, dimethyl ((5-(3,7-dimethylocta-2,6-dien-1-yl)-4,6-dihydroxy-2-pentyl-1,3-phenylene)bis(methylene))bis(methylcarbamate)]	500 to 990	1.49	0.5 to 0.99		
CCCCCc1cc(O)c(C/C=C(\C)CCC=C(C)C)c(O)c1C(=O)Nc1ccc(F)cc1 [Compound 60, 3-(3,7-dimethylocta-2,6-dien-1-yl)-N-(4-fluorophenyl)-2,4-dihydroxy-6-pentyl benzamide]	< 500	2.52	1 to 4.99		
CCCCCc1cc(O)c(C/C=C(\C)CCC=C(C)C)c(O)c1C(=O)NCc1ccc(F)cc1 [Compound 61, 3-(3,7-dimethylocta-2,6-dien-1-yl)-N-(4-fluorobenzyl)-2,4-dihydroxy-6-pentylbenzamide]	< 500	118.29	0.5 to 0.99		
CCCCCc1cc(O)c(C/C=C(\C)CCC=C(C)C)c(O)c1C(=O)NCc1cccnc1 [Compound 62, 3-(3,7-dimethylocta-2,6-dien-1-yl)-2,4-dihydroxy-6-pentyl-N-(pyridin-3-ylmethyl)benzamide]	500 to 990	4.71	1 to 4.99		
CCCCCc1cc(O)c(C/C=C(\C)CCC=C(C)C)c(O)c1C(=O)Nc1cccnc1 [Compound 63, 3-(3,7-dimethylocta-2,6-dien-1-yl)-2,4-dihydroxy-6-pentyl-N-(pyridin-3-yl) benzamide]		2.20		1000 to 4990	1 to 4.99

— patent US20230286906A1, “CANNABINOID DERIVATIVES” (CANOPY GROWTH CORPORATION, priority 2019, published 2023)
